In data set [1] the test system is Aedes aegypti. In words: Example B7: evaluation of insecticide impregnated polymer surfaces. Format: in vivo. Conditions: AI content 2 wt %, polymer 4 to 6 weeks old; for mortality: 24 hours after exposure; for knock-down: after one hour. The gist of the method: (§1)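 Methoxyacrylates were melt-blended into LDPE, HDPE or PP and moulded into sheets about 0.1 mm thick. Ten 3–5-day-old non-blood-fed adult females were held 24 h on 10% sucrose, then confined in a Petri dish under the treated sheet for 1 h. Knockdown was scored at 1 h and mortality 24 h after exposure.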

In data set [2] the test system is Anopheles stephensi. The description is as above. Conditions: AI content 2 wt %; for mortality: 24 hours after exposure; for knock-down: after one hour. Format: in vivo. The method, boiled down: as §1

Structures are written as SMILES.

Take `CO/C=C(/C(=O)OC)c1ccccc1Oc1nc(C(C)(C)C)ns1` [Compound 7, Methyl (E)-2-[2-[(3-tert-butyl-1,2,4-thiadiazol-5-yl)oxy]phenyl]-3-methoxy-prop-2-enoate]: the mortality in data set [1] (HDPE) was determined as 47%; in data set [1] (LDPE) it was 97%; in data set [1] (PP), 23%; in data set [2] (HDPE, polymer 4 to 6 weeks old), 87%; in data set [2] (HDPE, polymer 6 to 8 weeks old), 87%; in data set [2] (LDPE, polymer 4 to 6 weeks old) it was 97%. In addition, the mortality in data set [2] (LDPE, polymer 6 to 8 weeks old) is given as 100%; in data set [2] (PP, polymer 4 to 6 weeks old) it was 87%; in data set [2] (PP, polymer 6 to 8 weeks old), 77%. The knock-down in data set [1] (HDPE) was found to be 83%; in data set [1] (LDPE) it was 100%; in data set [1] (PP), 67%; in data set [2] (HDPE, polymer 4 to 6 weeks old), 93%; in data set [2] (HDPE, polymer 6 to 8 weeks old), 100%; in data set [2] (LDPE, polymer 4 to 6 weeks old), 100%. Moreover, the knock-down in data set [2] (LDPE, polymer 6 to 8 weeks old) was 87%; in data set [2] (PP, polymer 4 to 6 weeks old), 93%; in data set [2] (PP, polymer 6 to 8 weeks old), 100%.
